We go through two compounds from US20060277615A1, “Method of determining xenograft responses” (priority 2003, published 2006).

For assay [1], the system named is PC3/SFN cells xenografted tumours. Put plainly: Urine hCG in nude mice bearing PC3/SFN-hCG(myc)-Amp reporter xenografts. In kind it is in vivo, congenitally athymic nude mice. Particulars: for increase of normalised urine hCG levels: 48 hours post-dosing vs pre-dose, normalised against urine creatinine, relative to tumour volume; for hCG expression in individual mice compared to vehicle controls: single dose ip (etoposide 40 mg/kg, camptothecin 30 mg/kg), urine 48 hours after drug administration. On the procedure: PC3 cells stably transfected with the SFN-hCG(myc)-Amp reporter construct were allowed to grow as solid subcutaneous tumours in congenitally athymic nude mice. The mice were then treated with anticancer drugs that act by inducing G2/M arrest. The drugs chosen for this exemplification were etoposide and camptothecin [12]. […] Wild-type and engineered PC3 tumour cell lines were cultured in RPMI medium supplemented with 10%-15% heat inactivated foetal calf serum, 2 mM L-glutamine, penicillin (50 IU/ml), streptomycin (50 μg/ml). Culture medium for PC3/SFN cells also contained G418 (200 μg/ml). Cultures were incubated in a humidified incubator at 37° C., 5% CO2. Cells were harvested, pooled, centrifuged, and re-suspended in cold medium. This was mixed with an equal volume of cold Matrigel, so that the tumour cell injection solution was a 50:50 mixture of tumour cells/medium and Matrigel for each cell line. Wild type or transfected PC3 cells were injected at 2.5×10^6 per animal. All cell lines were injected in a volume of 100 μl in the right hand flank only. The study consisted of 4 groups in total, each containing 4 animals. One group of mice was implanted with wild type PC3 cells and the remaining 3 groups with engineered cells. Tumour growth was measured twice-weekly following cell implantation until tumours reached 2-5 mm in diameter. Tumour volume (V) was calculated using the formula: V= 4/3π((d1+d2)/4)^3, where d=mean diameter (n=2) Treatment began 5 weeks after tumour implantation. Wild type PC3-xenografted mice remained untreated; all other mice were administered vehicle only (DMSO/saline) or test substances. Single administrations of Camptothecin (30 mg/kg) and Etoposide (40 mg/kg) were administered ip at 10 ml/kg. Additionally, Etoposide (25 mg/kg) was administered to a single group of mice over three consecutive days (ip; 10 ml/kg). Urine samples were harvested before, during and after drug administration. Animals were sacrificed 48 hours after treatment. Urine was analysed for hCG and values normalised against urine creatinine levels.

Assay [2] relates to PC3 cells stably engineered to contain the SFN-hCG(myc)-Amp construct. Briefly: hCG induction in PC3 cells stably engineered to contain the SFN-hCG(myc)-Amp construct (ELISA of medium). The assay is classed as cell-based, human. Particulars: stable PC3 cell line, 24 hours. On the procedure: To generate a stable cell line, transfection was carried out as above. After 24 hours the cells were trypsinised and transferred to 10 cm tissue culture dishes (one well of a six well plate per 10 cm dish). The cells were allowed to grow on these dishes for 7 days prior to selection. After this time, G418 (20 ng/ml in cell culture medium) was added and the dishes maintained until colonies became visible (approximately one week). Individual colonies were picked using cloning discs soaked in typsin and transferred to individual wells of a 24 well plate. The colonies were then expanded to 6 well plates then T25 flasks and grown up until sufficient cells were present for use in in vitro inductions and xenograft experiments. Following the generation of a stable cell line containing the SFN-hCG(myc)-Amp reporter construct, the cells were further tested using etoposide. The cells were plated out on 6 well plates and allowed to adhere overnight. The next day they were treated with etoposide (50 or 400 μM) or vehicle (dimethyl sulphoxide). After 24 hours in the presence or absence of etoposide, samples of the medium were taken and assayed for hCG by enzyme-linked immunosorbent assay as above.

Assay [3] concerns PC3 cells containing the SFN-hCG(myc)-Amp reporter construct. Briefly: hCG induction in PC3 cells transiently transfected with SFN-hCG(myc)-Amp reporter construct (ELISA of medium). In kind it is cell-based, human. Particulars: 50 μM etoposide, 24 hours, vs untreated. Here is the method: The SFN-hCG(myc)-Amp reporter construct was transfected into PC3 cells on 6-well tissue culture plates using FuGene reagent (Roche, Lewes, East Sussex). Construct DNA (equivalent to 1 μg/well) was added to FuGene reagent (3 μl/well) and made up to 100 μl/well with serum free medium. The medium in which the cells were growing was aspirated off and replaced with 100 μl of the above mixture per well. For transient transfections, the cells were used for experiments 24 hours after the addition of the construct.

On to `CC[C@@]1(O)C(=O)OCc2c1cc1n(c2=O)Cc2cc3ccccc3nc2-1` [camptothecin], for which the “increase of normalised urine hCG levels” value in assay [1] (single dose 30 mg/kg ip) is 5.29 fold. In addition, the “hCG expression in individual mice compared to vehicle controls” value in assay [1] is reported as “significantly increased”.

`COc1cc([C@@H]2c3cc4c(cc3[C@@H](O[C@@H]3O[C@@H]5CO[C@@H](C)O[C@H]5[C@H](O)[C@H]3O)[C@H]3COC(=O)[C@H]23)OCO4)cc(OC)c1O` [etoposide]: the “amount of hCG secreted at higher concentration” value in assay [2] (400 μM vs 50 μM etoposide) is “increased”. Also, the “amount of hCG secreted into the surrounding medium” value in assay [2] (etoposide 50 or 400 μM, vs vehicle (dimethyl sulphoxide)) is “increased”; in assay [3], “increased”. The “hCG levels at 24 and 48 hours following a third dose” value in assay [1] (3 consecutive doses of 25 mg/kg ip, 24 and 48 hours after third dose) is recorded as “dropped to control levels”. The “normalised hCG expression following the first dose” value in assay [1] (3 consecutive doses of 25 mg/kg ip, after first dose) was “sharp increase”. In addition, the “normalised hCG expression following a second dose” value in assay [1] (3 consecutive doses of 25 mg/kg ip, after second dose) was “remained at this level”. For the same compound, the “anti-tumour effect against the PC3/SFN cells” value in assay [1] (3 consecutive doses of 25 mg/kg ip, inferred from the drop in urine hCG) is given as “exhibited an anti-tumour effect”. Besides, in assay [1] (single dose 40 mg/kg ip), the “increase of normalised urine hCG levels” value is recorded as 4.29 fold. Also, the “hCG expression in individual mice compared to vehicle controls” value in assay [1] is on record as “significantly increased”.
